Our source for the IC50 values is ChEMBL document CHEMBL3639084, “Heterocyclic analogs of propargyl-linked inhibitors of dihydrofolate reductase” (2014).

The IC50 is the concentration needed to halve the response being measured. Read a high IC50 as weaker potency in that assay.

The assay concerns the target T1, Dihydrofolate reductase (Homo sapiens, UniProt P00374).
T1 sequence (P00374 whole entry): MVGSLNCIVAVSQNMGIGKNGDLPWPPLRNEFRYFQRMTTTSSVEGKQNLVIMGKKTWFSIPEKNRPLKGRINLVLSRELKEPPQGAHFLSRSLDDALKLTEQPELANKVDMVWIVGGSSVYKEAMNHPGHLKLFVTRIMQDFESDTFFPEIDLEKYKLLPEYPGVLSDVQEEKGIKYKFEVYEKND
Kind of assay: Spectrophotometric Enzyme Assay: Compounds were evaluated in spectrophotometric enzyme assays using ChDHFR-TS and hDHFR. Inhibition constants (IC50) were measured (see Table 4). The lead compound, X, has an inhibition constant of 38 nM and modest selectivity (8-fold).

SMILES strings stand for the structures.

Consider `COc1cc(-c2ccccc2C)ccc1C(C)C#Cc1c(C)nc(N)nc1N` (stereo unspecified), for which the midpoint of inhibition, the IC50, lay at 2770 nM.
